Experimental data as given in patent publication US6334995B1, “Process for the preparation of technetium-99m diethylene triamine penta-acetic acid diester” (Council of Scientific & Industrial Research, priority 1998, dated 2002).
Like-named read-outs stand apart in the source and are kept apart here.

Experiments:
[1] = cited from earlier work; for extraction efficiency: background statement; for Renal extraction: background comparison of MAG3 with iodine-131 orthoiodo-hippurate
[2] = type: in vivo; settings: dog (10-12 kg)
Protocol: (§1) Renal plasma clearance of technetium-99m diethylene triamine pentaacetic acid dimethyl ester was studied in rats by single injection method. Two plasma samples were collected at 20 and 30 min time point. The clearance was calculated using a single compartment model. Iodine-131 orthoiodo-hippurate was coinjected as standard. This experiment was also performed with technetium-99m mercaptoacetylglycylglycylglycine. […] The corresponding values in dog (10-12 kg) for technetiumn-99m diethylene triamine pentaacetic acid dimethyl ester and technetium-99m mercaptoacetylglycylglycylglycine along with coinjected hippurate were 72, 80 and 157 ml/min. These values are much higher than technetium-99m diethylene triamine pentaacetic acid in rats (0.82 ml/min 100 g) or dogs (43 ml/min).

[3] = background statement; cited from earlier work
[4] = Comparative biodistribution in mice; type: in vivo
Protocol: (§2) Biological evaluation of technetium-99m diethylenie triamine pentaacetic acid diester by comparative biodistribution with iodine-131 orthoiodo-hippurate and technetium-99m mercaptoacetylglycylglycylglyciine.
(§3) The comparative biodistribution experiment was undertaken in mice and rats. In mice either technetium-99m diethylene triamine pentaacetic acid diester or technetium-99m mercaptoacetylglycylglycylglycine were injected via the tail vein along with iodine-131 orthoiodo-hippurate. Rats were anaesthetised with urethane and the above radiochemicals were injected via the femoral vein. After predetermined time interval the animals were sacrificed and the organs were taken in the counting vial. Considerable care were exercised not to loose any urine during the process.

[5] = Comparative biodistribution in rats; type: in vivo; settings: for Blood, percent dose per organ / Intestine, percent dose per organ / Kidney, percent dose per organ / Liver, percent dose per organ / Urine, percent dose per organ: rat; for hepatobiliary accumulation: conclusion from biodistribution in rats or mice or scintigraphic experiments on dog
Protocol: as §2, §3

[6] = Renal plasma clearance in rats, single injection method; type: in vivo; settings: plasma samples at 20 and 30 min, single compartment model
Protocol: as §1

[7] = background statement; cited from earlier work; remark: listed apart in the source

| Compound | Renal plasma clearance [2] [mL/min] | Blood, percent dose per organ ([4]; 10 min post-injection) [percent dose per organ] | Intestine, percent dose per organ ([4]; 10 min post-injection) [percent dose per organ] | Kidney, percent dose per organ ([4]; 10 min post-injection) [percent dose per organ] | Liver, percent dose per organ ([4]; 10 min post-injection) [percent dose per organ] | Urine, percent dose per organ ([4]; 10 min post-injection) [percent dose per organ] | Blood, percent dose per organ ([4]; 30 min post-injection) [percent dose per organ] | Intestine, percent dose per organ ([4]; 30 min post-injection) [percent dose per organ] | Kidney, percent dose per organ ([4]; 30 min post-injection) [percent dose per organ] | Liver, percent dose per organ ([4]; 30 min post-injection) [percent dose per organ] | Urine, percent dose per organ ([4]; 30 min post-injection) [percent dose per organ] | Blood, percent dose per organ ([5]; 10 min post-injection) [percent dose per organ] | Intestine, percent dose per organ ([5]; 10 min post-injection) [percent dose per organ] | Kidney, percent dose per organ ([5]; 10 min post-injection) [percent dose per organ] | Liver, percent dose per organ ([5]; 10 min post-injection) [percent dose per organ] | Urine, percent dose per organ ([5]; 10 min post-injection) [percent dose per organ] | Blood, percent dose per organ ([5]; 30 min post-injection) [percent dose per organ] | Intestine, percent dose per organ ([5]; 30 min post-injection) [percent dose per organ] | Kidney, percent dose per organ ([5]; 30 min post-injection) [percent dose per organ] | Liver, percent dose per organ ([5]; 30 min post-injection) [percent dose per organ] | further results |
| --- | --- | --- | --- | --- | --- | --- | --- | --- | --- | --- | --- | --- | --- | --- | --- | --- | --- | --- | --- | --- | --- |
| O=C(O)CNC(=O)c1ccccc1I [Orthoiodo-hippurate] | – | – | – | – | – | – | – | – | – | – | – | – | – | – | – | – | – | – | – | – | extraction efficiency [1]: 87% |
| O=C(O)CNC(=O)c1ccccc1[131I] [compound 1, Iodine-131 orthoiodo-hippurate] | 157 | 3.00 ± 1.29 | 2.16 ± 0.28 | 2.57 ± 1.05 | 2.47 ± 0.26 | 64.85 ± 2.74 | 1.41 ± 0.72 | 1.21 ± 0.47 | 0.59 ± 0.30 | 0.90 ± 0.14 | 80.38 | 5.61 ± 0.87 | 2.12 ± 0.41 | 3.72 ± 0.77 | 3.29 ± 1.14 | 48.92 ± 1.54 | 1.47 ± 0.28 | 1.92 ± 0.39 | 0.94 ± 0.20 | 0.80 ± 0.12 | protein binding [3]: 32%; Urine, percent dose per organ ([5]; 30 min post-injection): 79.80 percent dose per organ; Renal plasma clearance [6]: 2.68 ml/min/100 g; Renal extraction [1]: 79% |
| Technetium-99m diethylene triamine pentaacetic acid [compound 4] | 43 | 14.66 ± 3.33 | 2.71 ± 0.20 | 2.57 ± 0.30 | 2.57 ± 0.47 | 35.48 ± 2.92 | 5.55 ± 1.22 | 3.12 ± 0.85 | 1.08 ± 0.03 | 1.02 ± 0.30 | 60.15 | 19.06 ± 2.37 | 3.65 ± 2.05 | 5.13 ± 1.00 | 4.91 ± 1.18 | 21.23 ± 1.61 | 7.08 ± 1.50 | 6.43 ± 1.42 | 2.78 ± 1.00 | 3.30 ± 0.79 | Urine, percent dose per organ ([5]; 30 min post-injection): 43.32 percent dose per organ; Renal plasma clearance [6]: 0.82 ml/min/100 g; extraction efficiency [1]: 20% |
| technetium-99m diethylene triamine pentaacetic acid dimethyl ester [compound 2] | 72 | 7.27 ± 2.41 | 3.40 ± 0.25 | 3.36 ± 0.98 | 1.65 ± 0.11 | 46.39 ± 3.67 | 1.51 ± 0.53 | 1.67 ± 0.91 | 1.28 ± 0.52 | 1.22 ± 0.25 | 73.23 | 8.26 ± 0.75 | 2.19 ± 0.41 | 3.21 ± 0.29 | 2.14 ± 0.41 | 30.94 ± 3.40 | 3.49 ± 0.36 | 1.53 ± 0.10 | 1.47 ± 0.41 | 0.91 ± 0.03 | hepatobiliary accumulation [5]: no hepatobiliary accumulation; Urine, percent dose per organ ([5]; 30 min post-injection): 64.20 percent dose per organ; Renal plasma clearance [6]: 1.39 ml/min/100 g |
| technetium-99m mercaptoacetylglycylglycylglycine [compound 3] | 80 | 6.60 ± 2.37 | 3.31 ± 0.40 | 4.32 ± 0.15 | 7.07 ± 0.82 | 48.34 ± 2.36 | 1.23 ± 0.26 | 5.82 ± 0.60 | 1.12 ± 0.25 | 4.36 ± 0.43 | 70.99 | 4.22 ± 0.40 | 4.94 ± 1.39 | 8.51 ± 1.54 | 3.37 ± 0.76 | 33.15 ± 6.30 | 2.31 ± 0.24 | 10.12 ± 0.88 | 2.99 ± 0.96 | 4.48 ± 1.48 | protein binding [3]: 77%; hepatobiliary accumulation [5]: appreciable amount; Urine, percent dose per organ ([5]; 30 min post-injection): 63.50 percent dose per organ; Renal plasma clearance [6]: 1.45 ml/min/100 g; accumulation in hepatobiliary system [7]: Unwanted accumulation in hepatobiliary system is observed; Renal extraction [1]: 53% |
